Test results as given in patent US10912771B1, “Methods for the administration of certain VMAT2 inhibitors” (Neurocrine Biosciences, Inc., priority 2017, dated 2021).

What was measured:
human VMAT1 transporter = target: T1, human VMAT1 transporter (Homo sapiens, UniProt P54219); assay: Uptake in cells expressing VMAT1; type: cell-based; details: TBZ, VBZ and metabolites at concentrations up to 10 μM
T1 construct: expressed in transfected cells
T1 sequence (P54219 1-525): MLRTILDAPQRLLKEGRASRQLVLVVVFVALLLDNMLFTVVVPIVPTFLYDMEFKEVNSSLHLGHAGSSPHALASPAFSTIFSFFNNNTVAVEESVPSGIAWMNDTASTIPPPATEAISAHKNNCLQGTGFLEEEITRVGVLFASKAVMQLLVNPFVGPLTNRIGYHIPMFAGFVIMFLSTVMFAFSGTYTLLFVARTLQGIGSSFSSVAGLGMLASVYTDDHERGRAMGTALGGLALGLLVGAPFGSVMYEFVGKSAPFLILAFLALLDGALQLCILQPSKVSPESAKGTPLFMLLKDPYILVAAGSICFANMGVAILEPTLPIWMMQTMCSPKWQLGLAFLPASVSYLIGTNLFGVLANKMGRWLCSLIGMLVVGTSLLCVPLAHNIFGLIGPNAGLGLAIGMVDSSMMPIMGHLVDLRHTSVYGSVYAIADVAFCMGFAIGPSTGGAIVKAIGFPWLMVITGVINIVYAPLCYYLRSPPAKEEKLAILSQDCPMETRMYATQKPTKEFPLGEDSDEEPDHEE

[1] = Phase 1 drug-interaction study: safety, treatment-emergent adverse events; type: in vivo, human; details: Safety Analysis Set, healthy subjects, by treatment period
Procedure: Subjects received a single dose of 80 mg valbenazine tosylate on Days 1 and 11 between 0800 and 1000 hours. In addition, subjects received 600 mg rifampin (300 mg×2 capsules) once daily on Days 5 (after collection of the 96-hour PK sample) through 14 between 0830 and 1030 hours. Subjects were required to fast overnight before receiving the study drugs (valbenazine tosylate and rifampin). Subjects were discharged from the study center on Day 15 (final study day or upon early termination) after all safety evaluations and study assessments had been completed.
An analysis of variance (ANOVA) model was used to compare AUC0-∞ and Cmax for NBI-98854 administered with rifampin (“test”) versus AUC0-∞ and Cmax for NBI-98854 alone (“reference”). The PK parameters for metabolites of NBI-98854 and rifampin were also evaluated. Safety data were summarized using descriptive statistics.

Row | Compound | inhibition of uptake through VMAT1 (human VMAT1 transporter) | Subjects who experienced a TEAE: Overall [1] | TEAE: Abdominal pain [1] | TEAE: Abdominal pain upper [1] | TEAE: Arthropod bite [1] | TEAE: Chromaturia [1] | TEAE: Headache [1] | TEAE: Hypoaesthesia [1] | TEAE: Non-cardiac chest pain [1] | TEAE: Paraesthesia [1] | TEAE: Vessel puncture site haemorrhage [1] | TEAE: Chromaturia ([1]; listed as rifampin)
1 | COC(=O)[C@H]1[C@H]2C[C@@H]3c4[nH]c5cc(OC)ccc5c4CCN3C[C@H]2C[C@@H](OC(=O)c2cc(OC)c(OC)c(OC)c2)[C@@H]1OC [reserpine, reference compound] | substantially inhibited uptake | – | – | – | – | – | – | – | – | – | – | –
2 | CO[C@H]1/C=C/O[C@@]2(C)Oc3c(C)c(O)c4c(O)c(c(/C=N/N5CCN(C)CC5)c(O)c4c3C2=O)NC(=O)/C(C)=C\C=C\[C@H](C)[C@H](O)[C@@H](C)[C@@H](O)[C@@H](C)[C@H](OC(C)=O)[C@@H]1C [Rifampin, reference compound] | – | 12 (100) n (%) | 0 n (%) | 1 (8.3) n (%) | 0 n (%) | 12 (100) n (%) | 0 n (%) | 0 n (%) | 1 (8.3) n (%) | 1 (8.3) n (%) | 0 n (%) | 12 n (%)
